Reference: US20240269139A1, “COMPOUNDS FOR TARGETED PROTEIN DEGRADATION OF KINASES” (DANA-FARBER CANCER INSTITUTE, INC., priority 2020, published 2024)
Where two headings read alike, the source gives them in different places.

Legend:
Type in all cases: cell-based
[1] = biological target: protein kinases (human kinome) (Homo sapiens, UniProt Q8N5S9); conditions: experiment wp117
[2] = biological target: protein kinases (human kinome) (Homo sapiens, UniProt Q9BZX2); conditions: protein UCK2 (Q9BZX2-1); experiment wp160, 8 hr; down
[3] = biological target: protein kinases (human kinome) (Homo sapiens, UniProt Q9H999); conditions: PANK3 (Q9H999); experiment wp152
[4] = biological target: protein kinases (human kinome) (Homo sapiens, UniProt P54753)
[5] = biological target: protein kinases (human kinome) (Homo sapiens, UniProt Q16760); conditions: protein DGKD (Q16760-1); experiment wp045; down
[6] = biological target: protein kinases (human kinome) (Homo sapiens, UniProt Q14680); conditions: experiment wp131
[7] = biological target: protein kinases (human kinome) (Homo sapiens, UniProt A2RU49); conditions: protein HYKK (A2RU49); experiment wp117; down
[8] = biological target: protein kinases (human kinome) (Homo sapiens, UniProt Q9P2K8); conditions: experiment wp080
[9] = biological target: T1, protein kinases (human kinome) (Homo sapiens, UniProt Q9H2K8); conditions: for logFC: TAOK3 (Q9H2K8); for logFC TAOK3 (Q9H2K8): direction of change down
T1 sequence (Q9H2K8 1-898): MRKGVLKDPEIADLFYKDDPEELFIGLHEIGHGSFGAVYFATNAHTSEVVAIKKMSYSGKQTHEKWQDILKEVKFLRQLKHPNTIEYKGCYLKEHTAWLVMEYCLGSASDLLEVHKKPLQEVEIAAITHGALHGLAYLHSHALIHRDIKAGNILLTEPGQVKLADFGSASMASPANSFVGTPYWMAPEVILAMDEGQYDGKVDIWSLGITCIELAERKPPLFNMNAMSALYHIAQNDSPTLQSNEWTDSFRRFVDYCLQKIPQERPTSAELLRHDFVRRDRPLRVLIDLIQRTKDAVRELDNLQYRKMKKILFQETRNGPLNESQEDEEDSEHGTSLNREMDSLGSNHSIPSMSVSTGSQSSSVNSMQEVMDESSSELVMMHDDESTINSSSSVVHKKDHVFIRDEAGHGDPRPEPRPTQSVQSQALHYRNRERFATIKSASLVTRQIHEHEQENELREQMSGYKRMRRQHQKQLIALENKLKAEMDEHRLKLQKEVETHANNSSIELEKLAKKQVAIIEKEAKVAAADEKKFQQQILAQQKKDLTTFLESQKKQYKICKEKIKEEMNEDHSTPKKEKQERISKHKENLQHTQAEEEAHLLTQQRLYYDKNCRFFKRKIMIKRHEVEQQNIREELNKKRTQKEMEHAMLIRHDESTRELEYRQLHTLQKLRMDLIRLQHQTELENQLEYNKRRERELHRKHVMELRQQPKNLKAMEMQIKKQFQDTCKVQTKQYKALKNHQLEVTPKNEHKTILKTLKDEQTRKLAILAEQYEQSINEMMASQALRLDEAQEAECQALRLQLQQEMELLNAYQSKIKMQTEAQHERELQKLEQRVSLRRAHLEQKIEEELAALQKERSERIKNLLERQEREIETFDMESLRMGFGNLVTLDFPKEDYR

[10] = biological target: protein kinases (human kinome) (Homo sapiens, UniProt Q52WX2); conditions: for logFC: SBK1 (Q52WX2)
[11] = biological target: protein kinases (human kinome) (Homo sapiens, UniProt P54760); conditions: experiment wp172
[12] = biological target: protein kinases (human kinome) (Homo sapiens, UniProt Q9UK32)
[13] = biological target: protein kinases (human kinome) (Homo sapiens, UniProt Q96QT4); conditions: experiment wp107
[14] = biological target: protein kinases (human kinome) (Homo sapiens, UniProt Q9UHD2); conditions: experiment wp146
[15] = biological target: protein kinases (human kinome) (Homo sapiens, UniProt Q8N4C8); conditions: experiment wp107
Sequence of protein kinases (human kinome) (Homo sapiens, UniProt Q8N4C8) (Q8N4C8 whole entry): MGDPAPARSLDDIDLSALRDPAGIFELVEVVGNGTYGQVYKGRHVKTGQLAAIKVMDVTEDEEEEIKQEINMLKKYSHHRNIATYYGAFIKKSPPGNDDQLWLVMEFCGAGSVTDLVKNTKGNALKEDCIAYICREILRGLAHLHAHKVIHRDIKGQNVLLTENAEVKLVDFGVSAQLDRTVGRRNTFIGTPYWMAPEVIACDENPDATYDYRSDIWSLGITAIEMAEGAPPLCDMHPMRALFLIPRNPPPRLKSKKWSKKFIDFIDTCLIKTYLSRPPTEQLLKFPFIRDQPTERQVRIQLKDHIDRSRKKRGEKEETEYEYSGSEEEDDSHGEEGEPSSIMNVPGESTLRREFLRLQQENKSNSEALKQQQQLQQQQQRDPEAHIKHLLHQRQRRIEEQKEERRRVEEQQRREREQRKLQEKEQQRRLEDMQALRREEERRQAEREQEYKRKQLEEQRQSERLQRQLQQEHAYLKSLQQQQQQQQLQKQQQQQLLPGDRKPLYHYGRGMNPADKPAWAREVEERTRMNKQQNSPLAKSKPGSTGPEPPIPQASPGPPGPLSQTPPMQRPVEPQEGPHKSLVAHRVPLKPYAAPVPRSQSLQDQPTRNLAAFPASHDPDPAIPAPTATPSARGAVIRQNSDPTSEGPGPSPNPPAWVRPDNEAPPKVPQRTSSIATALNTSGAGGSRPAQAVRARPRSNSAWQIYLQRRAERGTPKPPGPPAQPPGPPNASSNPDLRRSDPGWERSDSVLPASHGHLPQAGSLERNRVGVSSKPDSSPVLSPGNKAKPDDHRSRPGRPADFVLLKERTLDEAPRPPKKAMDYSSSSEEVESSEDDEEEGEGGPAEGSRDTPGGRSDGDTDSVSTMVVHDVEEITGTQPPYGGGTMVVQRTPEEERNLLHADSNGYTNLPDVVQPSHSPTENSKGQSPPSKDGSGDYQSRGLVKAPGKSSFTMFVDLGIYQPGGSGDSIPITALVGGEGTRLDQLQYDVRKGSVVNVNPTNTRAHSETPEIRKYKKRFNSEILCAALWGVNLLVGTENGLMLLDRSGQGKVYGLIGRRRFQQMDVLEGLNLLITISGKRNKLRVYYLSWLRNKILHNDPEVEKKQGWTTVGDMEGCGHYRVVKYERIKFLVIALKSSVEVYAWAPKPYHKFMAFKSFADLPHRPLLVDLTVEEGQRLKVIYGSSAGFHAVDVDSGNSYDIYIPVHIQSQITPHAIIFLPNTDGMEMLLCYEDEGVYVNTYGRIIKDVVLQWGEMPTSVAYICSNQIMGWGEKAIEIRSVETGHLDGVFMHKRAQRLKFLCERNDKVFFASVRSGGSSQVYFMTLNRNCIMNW

Sequence of protein kinases (human kinome) (Homo sapiens, UniProt Q52WX2) (Q52WX2 whole entry): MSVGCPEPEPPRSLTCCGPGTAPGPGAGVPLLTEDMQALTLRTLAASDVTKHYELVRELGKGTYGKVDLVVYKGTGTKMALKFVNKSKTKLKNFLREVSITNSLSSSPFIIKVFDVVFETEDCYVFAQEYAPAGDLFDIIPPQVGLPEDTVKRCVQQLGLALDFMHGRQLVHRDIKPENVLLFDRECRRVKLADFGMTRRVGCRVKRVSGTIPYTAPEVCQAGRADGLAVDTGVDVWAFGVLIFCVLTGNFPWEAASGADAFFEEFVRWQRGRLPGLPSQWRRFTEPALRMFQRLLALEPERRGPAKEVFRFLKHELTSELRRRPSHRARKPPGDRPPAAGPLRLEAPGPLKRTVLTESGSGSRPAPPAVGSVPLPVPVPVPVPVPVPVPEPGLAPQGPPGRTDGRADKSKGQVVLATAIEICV
Sequence of protein kinases (human kinome) (Homo sapiens, UniProt P54760) (P54760 16-987): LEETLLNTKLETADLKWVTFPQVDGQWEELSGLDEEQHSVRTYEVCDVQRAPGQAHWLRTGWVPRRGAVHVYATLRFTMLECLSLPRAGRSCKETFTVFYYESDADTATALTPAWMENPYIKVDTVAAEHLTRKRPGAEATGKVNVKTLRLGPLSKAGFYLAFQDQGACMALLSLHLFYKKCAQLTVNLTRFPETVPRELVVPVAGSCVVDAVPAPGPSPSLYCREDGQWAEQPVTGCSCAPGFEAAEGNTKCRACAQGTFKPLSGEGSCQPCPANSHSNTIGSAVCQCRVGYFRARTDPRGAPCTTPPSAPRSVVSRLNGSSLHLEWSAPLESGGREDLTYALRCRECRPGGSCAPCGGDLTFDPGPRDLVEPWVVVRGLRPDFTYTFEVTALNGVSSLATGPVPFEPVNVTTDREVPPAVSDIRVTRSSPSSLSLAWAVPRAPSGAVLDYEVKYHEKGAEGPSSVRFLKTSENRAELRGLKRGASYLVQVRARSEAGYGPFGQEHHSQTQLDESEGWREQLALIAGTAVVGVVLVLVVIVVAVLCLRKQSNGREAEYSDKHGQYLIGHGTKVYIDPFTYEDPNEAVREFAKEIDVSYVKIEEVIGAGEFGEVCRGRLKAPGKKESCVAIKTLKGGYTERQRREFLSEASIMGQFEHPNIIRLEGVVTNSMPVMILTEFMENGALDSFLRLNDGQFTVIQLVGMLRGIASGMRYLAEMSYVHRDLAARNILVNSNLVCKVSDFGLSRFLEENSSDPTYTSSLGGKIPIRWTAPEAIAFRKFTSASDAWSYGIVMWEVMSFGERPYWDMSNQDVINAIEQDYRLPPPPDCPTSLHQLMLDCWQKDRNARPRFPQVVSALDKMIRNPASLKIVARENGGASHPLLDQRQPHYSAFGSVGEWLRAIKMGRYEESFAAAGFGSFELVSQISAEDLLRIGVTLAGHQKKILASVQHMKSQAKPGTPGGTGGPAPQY
Sequence of protein kinases (human kinome) (Homo sapiens, UniProt Q9P2K8) (Q9P2K8 whole entry): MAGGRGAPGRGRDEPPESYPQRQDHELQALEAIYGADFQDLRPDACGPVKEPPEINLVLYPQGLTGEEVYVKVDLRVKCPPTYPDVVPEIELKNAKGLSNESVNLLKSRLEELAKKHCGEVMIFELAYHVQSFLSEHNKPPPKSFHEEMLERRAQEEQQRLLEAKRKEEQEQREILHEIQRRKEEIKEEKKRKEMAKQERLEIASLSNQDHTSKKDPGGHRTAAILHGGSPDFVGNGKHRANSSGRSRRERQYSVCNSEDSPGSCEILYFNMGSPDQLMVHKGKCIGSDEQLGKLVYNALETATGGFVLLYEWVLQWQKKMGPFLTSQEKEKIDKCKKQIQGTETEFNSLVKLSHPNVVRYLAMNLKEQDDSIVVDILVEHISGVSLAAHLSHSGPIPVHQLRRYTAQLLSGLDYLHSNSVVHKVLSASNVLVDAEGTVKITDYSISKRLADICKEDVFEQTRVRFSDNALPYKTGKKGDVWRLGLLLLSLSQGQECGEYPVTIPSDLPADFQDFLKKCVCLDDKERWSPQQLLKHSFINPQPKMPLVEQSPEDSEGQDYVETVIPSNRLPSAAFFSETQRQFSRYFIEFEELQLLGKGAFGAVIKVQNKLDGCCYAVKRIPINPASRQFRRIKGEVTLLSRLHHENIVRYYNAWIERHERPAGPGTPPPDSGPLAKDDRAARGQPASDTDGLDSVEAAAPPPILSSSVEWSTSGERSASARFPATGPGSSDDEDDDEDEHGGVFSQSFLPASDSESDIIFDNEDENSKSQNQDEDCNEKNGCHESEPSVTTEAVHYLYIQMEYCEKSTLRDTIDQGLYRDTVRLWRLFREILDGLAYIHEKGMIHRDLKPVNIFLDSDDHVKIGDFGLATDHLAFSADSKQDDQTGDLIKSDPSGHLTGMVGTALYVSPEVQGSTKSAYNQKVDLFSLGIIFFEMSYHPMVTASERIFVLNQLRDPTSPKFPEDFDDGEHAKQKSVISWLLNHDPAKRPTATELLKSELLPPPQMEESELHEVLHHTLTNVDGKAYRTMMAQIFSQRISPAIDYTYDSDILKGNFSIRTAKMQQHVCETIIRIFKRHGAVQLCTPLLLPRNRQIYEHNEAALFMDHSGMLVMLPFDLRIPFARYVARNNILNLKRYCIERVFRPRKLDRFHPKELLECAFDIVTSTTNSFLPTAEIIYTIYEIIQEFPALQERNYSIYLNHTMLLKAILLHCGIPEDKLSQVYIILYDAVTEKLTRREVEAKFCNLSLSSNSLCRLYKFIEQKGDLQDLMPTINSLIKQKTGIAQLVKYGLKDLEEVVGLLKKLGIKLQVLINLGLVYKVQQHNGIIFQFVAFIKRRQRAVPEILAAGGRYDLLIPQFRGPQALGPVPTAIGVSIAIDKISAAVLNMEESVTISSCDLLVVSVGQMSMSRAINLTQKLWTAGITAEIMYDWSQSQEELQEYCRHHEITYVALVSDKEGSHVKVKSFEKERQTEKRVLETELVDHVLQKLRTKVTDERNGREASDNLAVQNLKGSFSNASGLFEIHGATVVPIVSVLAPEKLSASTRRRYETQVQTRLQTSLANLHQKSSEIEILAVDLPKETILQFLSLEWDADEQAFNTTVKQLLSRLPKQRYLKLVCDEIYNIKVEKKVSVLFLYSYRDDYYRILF
Sequence of protein kinases (human kinome) (Homo sapiens, UniProt Q9UHD2) (Q9UHD2 whole entry): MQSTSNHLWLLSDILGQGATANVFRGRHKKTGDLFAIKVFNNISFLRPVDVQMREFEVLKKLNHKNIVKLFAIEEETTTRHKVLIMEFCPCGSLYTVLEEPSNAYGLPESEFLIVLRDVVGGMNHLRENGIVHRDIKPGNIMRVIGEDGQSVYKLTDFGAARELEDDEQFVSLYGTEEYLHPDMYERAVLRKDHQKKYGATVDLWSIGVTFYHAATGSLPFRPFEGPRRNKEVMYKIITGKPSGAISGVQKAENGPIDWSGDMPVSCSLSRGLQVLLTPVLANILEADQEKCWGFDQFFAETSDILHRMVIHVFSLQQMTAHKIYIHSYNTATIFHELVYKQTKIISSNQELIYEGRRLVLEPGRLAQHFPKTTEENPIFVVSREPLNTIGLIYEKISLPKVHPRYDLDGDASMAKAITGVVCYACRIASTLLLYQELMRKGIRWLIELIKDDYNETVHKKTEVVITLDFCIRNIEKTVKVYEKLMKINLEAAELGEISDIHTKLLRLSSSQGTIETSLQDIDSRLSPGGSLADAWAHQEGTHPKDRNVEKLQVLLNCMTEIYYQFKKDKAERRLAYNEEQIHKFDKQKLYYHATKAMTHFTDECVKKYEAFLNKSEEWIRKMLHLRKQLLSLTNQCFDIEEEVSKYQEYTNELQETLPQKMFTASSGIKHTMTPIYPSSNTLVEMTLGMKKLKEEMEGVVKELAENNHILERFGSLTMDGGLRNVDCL

CS(=O)(=O)Nc1cccc(-c2csc3cnc(Nc4ccc(N5CCN(CCCCCOc6cccc7c6C(=O)N(C6CCC(=O)NC6=O)C7=O)CC5)cc4)nc23)c1 (centres unmarked) [DB0614, N-(3-(2-((4-(4-(5-((2-(2,6-Dioxopiperidin-3-yl)-1,3-dioxoisoindolin-4-yl)oxy)pentyl)piperazin-1-yl)phenyl)amino)thieno[3,2-d]pyrimidin-7-yl)phenyl)methanesulfonamide]
logFC ([1]; CAMKK1 (Q8N5S9)): −0.471
logFC CAMKK1 (Q8N5S9) ([1]; direction of change down): −0.471

Cc1ccc(NC(=O)c2cccc(C(F)(F)F)c2)cc1N1Cc2cnc(Nc3ccc(N4CCN(Cc5cn(CCCCCOc6cccc7c6C(=O)N(C6CCC(=O)NC6=O)C7=O)nn5)CC4)nc3)nc2N(C)C1=O (centres unmarked) [DB0646, N-(3-(7-((6-(4-((1-(5-((2-(2,6-Dioxopiperidin-3-yl)-1,3-dioxoisoindolin-4-yl)oxy)pentyl)-1H-1,2,3-triazol-4-yl)methyl)piperazin-1-v)pyridin-3-yl)amino)-1-methyl-2-oxo-1,4-dihydropyrimido[4,5-d]pyrimidin-3(2H)-yl)-4-methylphenyl)-3-(trifluoromethyl)benzamide]
logFC UCK2 [2]: −0.3246
logFC [3]: −0.3534
logFC EPHB3 (P54753) ([4]; Experiment wp114, direction of change down): −0.4175
logFC EPHB3 ([4]; protein EPHB3 (P54753), experiment wp114, down): −0.4175

Cc1ccc(NC(=O)c2cccc(C(F)(F)F)c2)cc1N1Cc2cnc(Nc3ccc(N4CCN(CCCCCCOc5cccc6c5C(=O)N(C5CCC(=O)NC5=O)C6=O)CC4)nc3)nc2N(C)C1=O (centres unmarked) [DB0663]
logFC DGKD [5]: −0.5955

Cc1ncsc1-c1ccc([C@H](C)NC(=O)[C@@H]2C[C@@H](O)CN2C(=O)[C@@H](NC(=O)CCOCCOCCN2CCN(c3ccc(Nc4ncc(Cl)c(Nc5ccccc5S(=O)(=O)C(C)C)n4)cc3)CC2)C(C)(C)C)cc1 [FMF.06.098.1]
logFC MELK (Q14680) ([6]; direction of change down): −0.38
logFC MELK ([6]; protein MELK (Q14680), down): −0.38

Cc1ncsc1-c1ccc([C@H](C)NC(=O)[C@@H]2C[C@@H](O)CN2C(=O)[C@@H](NC(=O)CCCCCN2CCN(c3ccc(Nc4ncc5scc(-c6cccc(NS(C)(=O)=O)c6)c5n4)cc3)CC2)C(C)(C)C)cc1 [RSS0680, (2S,4R)-1-((S)-3,3-Dimethyl-2-(6-(4-(4-((7-(3-(methylsulfonamido)phenyl)thieno[3,2-d]pyrimidin-2-yl)amino)phenyl)piperazin-1-yl)hexanamido)butanoyl)-4-hydroxy-N—((S)-1-(4-(4-methylthiazol-5yl)phenyl)ethyl)pyrrolidine-2-carboxamide]
logFC HYKK [7]: −0.3476
logFC EIF2AK4 (Q9P2K8-1) ([8]; direction of change down): −0.3311
logFC EIF2AK4 ([8]; protein EIF2AK4 (Q9P2K8-1), down): −0.3311

Cc1ccc(C(=O)Nc2ccc(CN3CCN(CCCOCCOCCOCCNC(=O)COc4cccc5c4C(=O)N(C4CCC(=O)NC4=O)C5=O)CC3)c(C(F)(F)F)c2)cc1C#Cc1cnc2cccnn12 (centres unmarked) [SB1.G.187]
logFC ([9]; experiment wp103): −0.3727
logFC ([9]; experiment wp107): −0.3858
logFC TAOK3 (Q9H2K8) ([9]; experiment wp103): −0.3727
logFC TAOK3 (Q9H2K8) ([9]; experiment wp107): −0.3858

CC(C)S(=O)(=O)c1ccccc1Nc1nc(Nc2ccc(N3CCN(CCOCCNC(=O)CNc4cccc5c4C(=O)N(C4CCC(=O)NC4=O)C5=O)CC3)cc2)ncc1Cl (centres unmarked) [SK.3.91]
logFC of SBK1 (Q52WVX2) ([10]; Experiment wp107): −0.921
logFC ([10]; experiment wp107): −0.921
logFC ([10]; experiment wp133, 2 hr): −0.6852
logFC ([10]; experiment wp133, 4 hr): −0.9029
logFC of SBK1 (Q52WX2) ([10]; experiment wp133, 2 hr): −0.6852
logFC of SBK1 (Q52WX2) ([10]; experiment wp133, 4 hr): −0.9029
logFC EPHB4 (P54760) ([11]; direction of change down): −0.5059
logFC EPHB4 ([11]; protein EPHB4 (P54760), down): −0.5059
logFC RPS6KA6 (Q9UK32) ([12]; Experiment wp105, direction of change down): −0.83
logFC RPSGKA6 ([12]; protein RPSGKA6 (Q9UK32), experiment wp105, down): −0.83
logFC TRPM7 (Q96QT4) ([13]; direction of change down): −0.3241
logFC TRPM7 ([13]; protein TRPM7 (Q96QT4), down): −0.3241

Cc1cc(Nc2ncc(Br)c(Nc3cccc(F)c3C(N)=O)n2)ccc1S(=O)(=O)NCCOCCOCCOCCOCCNc1cccc2c1C(=O)N(C1CCC(=O)NC1=O)C2=O (centres unmarked) [TMX.02.174]
logFC TBK1 (Q9UHD2) ([14]; direction of change down): −0.5951
logFC TBK1 ([14]; protein TBK1 (Q9UHD2), down): −0.5951

Nc1ncc(-c2ccc(S(=O)(=O)N(CCCNC(=O)CCOCCOCCOCCOCCOCCNc3cccc4c3C(=O)N(C3CCC(=O)NC3=O)C4=O)C3CC3)cc2)cc1-c1ccc2c(c1)CCNC2=O (centres unmarked) [WH.10417.099]
logFC MINK1 (Q8N4C8-1) ([15]; direction of change down): −0.5661
logFC MINK1 ([15]; protein MINK1 (Q8N408-1), down): −0.5661
